The results in this text go back to patent US10609926B2, “Synergistic herbicidal composition” (JIANGSU ROTAM CHEMISTRY CO., LTD, priority 2016, dated 2020).

The test system of the assay is gramineous weeds, broadleaf weeds and sedge weeds. Description: Post-emergence weed control efficacy test (potted plants, stem and leaf treatment; Colby evaluation). It counts as in vivo. From the text: The desired efficacy of the combination of three active compounds can be calculated through “Colby formula” as follows (S. R. Colby, “Calculating Synergistic and Antagonistic Responses of Herbicide Combinations, Weeds 1967, 15, 20-22): if
E0 is the anticipated activity of active compounds A, B and C when used in an amount of m, n, h g/ha or concentrate of m, n, h ppm, E0=A×B×C/(100^(N-1))
If the observed actual activity E is greater than the anticipated activity (E0), then the composition has synergistic effect.
If the observed actual efficiency of weed control (E) through the biology test is greater than the anticipated value (E0) as calculated via Colby's equation, then it represents that the efficacy of herbicidal composition is greater than the sum of efficacy of each component, which means the composition has synergistic effect.
Use stem and leaf treatment for potted grown plant(NY/T 1155.4-2006): fill a plastic pot (6 cm height, 9 cm diameter) with a quantity of soil and sow 15 to 20 seeds of monocotyledonous weeds and dicotyledonous weeds in the plastic pot, cover it with 0.5 to 1 cm thick of fine soil and then put it in greenhouse for cultivation. When weeds grow to the 2 to 4 leave stage, conduct the stem and leaf spray treatment with 1 mL herbicidal solution on each pot and repeat four times for each treatment and leave some pots untreated as control group. Keep the treated pots in a greenhouse for cultivation and observe the growing status of target weeds periodically. Conduct the visual test on the target weeds regarding the damage symptoms and growth inhibition effect after 21 days. Weigh up the fresh weight above the ground or plant fresh weight and evaluate the toxicity of the herbicidal formulation on target weeds based on the fresh weight inhibition rate of the target.
Prepare the following formulations according to specific weight percentages: 1. Pyroxasulfone; 2. Topramezone; 3 Atrazine; 4. Pyroxasulfone+Topramezone; 5. Pyroxasulfone+Atrazine; 6. Topramezone+Atrazine; 7. Pyroxasulfone+Topramezone+Atrazine. After that, dilute above formulations with water to obtain diluted formulations.
Conduct visual assessment the damage symptom and growth inhibition status of target weeds after 21 days. Weigh up the fresh weight above the ground and calculate the inhibition rate of fresh weight (%).
Anticipated effects of the special combined three active components can be calculated through so called “Colby formula”. If the actual efficiency of weed control observed during the biology test exceeds the anticipated value […] calculated by Colby's formula, then it represents that the efficacy of herbicidal composition is greater than the sum of efficacy of each component, which means the composition has synergistic effect.
The synergistic herbicidal composition of present invention has conducted test on the following important harmful plants (gramineous weeds, broadleaf weeds, sedge weeds) with wide herbicidal spectrum: Echinochloa oryzicola, Digitaria spp., Stellaria media, Amaranthus retroflexus, Fallopia (ex Polygonum) Convolvulus, Abuthilon theophrasti, Sagittariatrifolia, Oriental Waterplantain Rhizome, Herb of Pygmy Arrowhead, Monochoria korsakowii, Lindernia procumbens, Solanum nigrum L., Scirpus juncoides Roxb, Cyperus difformis L., Chenopodium alum L., Avena fatua L. and Galium aparine L. var. tenerum Gren. et (Godr.) Rebb.

On to `Cc1c(C(=O)c2cnn(C)c2O)ccc(S(C)(=O)=O)c1C1=NOCC1` [Topramezone, [3-(4,5-dihydro-3-isoxazolyl)-2-methyl-4-(methylsulfonyl)phenyl](5-hydroxy-1-methyl-1H-pyrazol-4-yl)methanone], for which the Actual survival rate reads like this: (application rate 1 g/ha) 87.8%; (application rate 25 g/ha) 24.5%; (application rate 50 g/ha) 12.8%.

Regarding `Cn1nc(C(F)(F)F)c(CS(=O)(=O)C2=NOC(C)(C)C2)c1OC(F)F` [Pyroxasulfone, 3-[5-(difluoromethoxy)-1-methyl-3-(trifluoromethyl)pyrazol-4-ylmethylsulfonyl]-4,5-dihydro-5,5-dimthyl-1,2-oxazole], the Actual survival rate came out at 89% (application rate 1 g/ha), 78% (application rate 5 g/ha) and 60% (application rate 10 g/ha).

On to `CCNc1nc(Cl)nc(NC(C)C)n1` [Atrazine, 2-chloro-4-ethylamino-6-isopropylamino-1,3,5-triazine], for which the Actual survival rate is listed as 100% (application rate 1 g/ha), 100% (application rate 50 g/ha) and 67% (application rate 100 g/ha).
